The target in data set [1] is COX-1 (UniProt P23219). Put plainly: Assay for COX-1 activity (PGE2 ELISA). Conditions: read-out: COX-1 IC50; 10–20 minutes pre-incubation, reaction stopped after ten minutes, pH 8.0.
Description: (§1) Recombinant baculoviruses were isolated by transfecting 4 μg of baculovirus transfer vector DNA into SF9 insect cells (2×10^8) along with 200 ng of linearized baculovirus plasmid DNA by the calcium phosphate method. […] Recombinant viruses were purified by three rounds of plaque purification and high titer (10^7–10^8 pfu/mL) stocks of virus were prepared. For large scale production, SF9 insect cells were infected in 10 liter fermentors (0.5×10^6/mL) with the recombinant baculovirus stock such that the multiplicity of infection was 0.1. […] The homogenate was centrifuged at 10,000×G for 30 minutes, and the resultant supernatant was stored at −80° C. before being assayed for COX activity.
Assay for COX-1 and COX-2 Activity
(§2) COX activity was assayed as PGE2 formed/μg protein/time using an ELISA to detect the prostaglandin released. CHAPS-solubilized insect cell membranes containing the appropriate COX enzyme were incubated in a potassium phosphate buffer (50 mM, pH 8.0) containing epinephrine, phenol, and heme with the addition of arachidonic acid (10 μM). […] The PGE2 formed was measured by standard ELISA technology (Cayman Chemical).
The target in data set [2] is T1, COX-2 (UniProt P35354).
T1 sequence (P35354 1-604): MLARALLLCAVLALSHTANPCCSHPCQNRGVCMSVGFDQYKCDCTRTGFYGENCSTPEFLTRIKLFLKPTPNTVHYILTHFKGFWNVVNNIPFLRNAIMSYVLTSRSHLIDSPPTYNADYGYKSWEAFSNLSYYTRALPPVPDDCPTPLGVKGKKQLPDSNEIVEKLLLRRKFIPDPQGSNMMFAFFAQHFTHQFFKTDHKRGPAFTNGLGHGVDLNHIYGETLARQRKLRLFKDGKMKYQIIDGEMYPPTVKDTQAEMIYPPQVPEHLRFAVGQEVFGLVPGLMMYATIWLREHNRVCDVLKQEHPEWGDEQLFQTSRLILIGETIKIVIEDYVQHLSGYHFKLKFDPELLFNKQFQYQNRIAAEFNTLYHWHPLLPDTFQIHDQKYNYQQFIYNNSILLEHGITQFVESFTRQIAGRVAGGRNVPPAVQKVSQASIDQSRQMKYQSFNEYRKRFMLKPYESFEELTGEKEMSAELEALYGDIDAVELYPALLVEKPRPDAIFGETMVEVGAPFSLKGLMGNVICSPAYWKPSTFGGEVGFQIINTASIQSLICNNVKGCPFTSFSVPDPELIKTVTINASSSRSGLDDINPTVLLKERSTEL
Put plainly: Fast assay for COX-2 activity (PGE2 ELISA). The format is biochemical, human or murine. Conditions: fast assay: 10 min pre-incubation at 25° C., reaction stopped after two minutes, pH 7.5.
Description: The homogenate was centrifuged at 10,000×G for 30 minutes, and the resultant supernatant was stored at −80° C. before being assayed for COX activity.
Fast Assay for COX-1 and COX-2 Activity
COX activity was assayed as PGE2 formed/μg protein/time using an ELISA to detect the prostaglandin released. CHAPS-solubilized insect cell membranes containing the appropriate COX enzyme were incubated in a potassium phosphate buffer (0.05 M Potassium phosphate, pH 7.5, 2 μM phenol,1 μM heme, 300 μM epinephrine) with the addition of 20 μl of 100 μM arachidonic acid (10 μM). […] The PGE2 formed was measured by standard ELISA technology (Cayman Chemical).

Data set [3] concerns the target T1, COX-2. Description: Assay for COX-2 activity (PGE2 ELISA). Conditions: read-out: COX-2 IC50; 10–20 minutes pre-incubation, reaction stopped after ten minutes, pH 8.0. A general note: In an ELISA, binding on a coated surface is turned into a signal by an enzyme label.
Description: as §1
Assay for COX-1 and COX-2 Activity
as §2

Experimental findings from US7138411B2, “Substituted benzopyran derivatives for the treatment of inflammation” (G.D. Searle & Co., priority 1997, dated 2006) are described below.

Structures are written as SMILES.

As usually defined, the IC50 is the concentration at which inhibition is half-maximal. As a reminder, the melting point is the temperature, or range, at which the solid turns liquid.

`O=C(O)C1=Cc2cc(C(F)(F)C(F)(F)F)ccc2OC1C(F)(F)F` (stereo not drawn) [Example 88, 6-(Pentafluoroethyl)-2-(trifluoromethyl)-2H-1-benzopyran-3-carboxylic acid] registered a melting point of 162.3 to 164.7 °C. Further, the IC50 in data set [1] came to 6400 nM. In addition, the 50% inhibitory concentration (IC50) in data set [2] is < 100 nM. The IC50 in data set [3] is < 100 nM.

Take `O=C(O)C1=Cc2cc(C(=O)c3ccc(Cl)cc3)ccc2OC1C(F)(F)F` (stereo not drawn) [Example 97, 6-(4-Chlorobenzoyl)-2-(trifluoromethyl)-2H-1-benzopyran-3-carboxylic acid]: the melting point fell in the range of 268.3 to 269.4 °C. For the same compound, in data set [1], the IC50 amounted to 25000 nM. The compound further came in with a half-inhibitory concentration (IC50) in data set [2] of 200 nM. Moreover, the IC50 in data set [3] is 100 nM.

`O=C(O)C1=Cc2cc(C(=O)c3ccc(O)cc3)ccc2OC1C(F)(F)F` (stereo not drawn) [Example 98, 6-(4-Hydroxybenzoyl)-2-(trifluoromethyl)-2H-1-benzopyran-3-carboxylic acid] came in with a melting point of 234 to 239.5 °C. Also, the concentration for half-maximal inhibition (IC50) in data set [1] stood at 19000 nM. Also, the IC50 in data set [2] was found to be 2000 nM. In addition, the 50% inhibitory concentration (IC50) in data set [3] worked out at 1500 nM.

The compound `O=C(O)C1=Cc2cc(Oc3ccccc3)ccc2OC1C(F)(F)F` (stereo not drawn) [Example 99, 6-Phenoxy-2-(trifluoromethyl)-2H-1-benzopyran-3-carboxylic acid] yielded a melting point of 184.9 to 186.4 °C. The IC50 in data set [1] came to 23000 nM. The same compound registered an IC50 in data set [2] of 200 nM. Further, in data set [3], the half-maximal inhibitory concentration (IC50) is < 100 nM.

On to `O=C(O)C1=Cc2cc(Oc3ccc(C(F)(F)F)cc3)ccc2OC1C(F)(F)F` (stereo not drawn) [Example 101, 2-(Trifluoromethyl)-6-[4-(trifluoromethyl)phenoxy)-2H-1-benzopyran-3-carboxylic acid], for which the melting point lay in the range of 153.5 to 154.4 °C. Moreover, the IC50 in data set [1] came to 16000 nM. The IC50 in data set [2] was < 100 nM. Further, in data set [3], the 50% inhibitory concentration (IC50) is < 100 nM.

On to `O=C(O)C1=Cc2cc(Oc3ccc(Cl)cc3)ccc2OC1C(F)(F)F` (stereo not drawn) [Example 104, 6-(4-Chlorophenoxy)-2-(trifluoromethyl)-2H-1-benzopyran-3-carboxylic acid], for which the melting point lay within 140.5 to 142.5 °C. Moreover, the IC50 in data set [1] is 8200 nM. In addition, the IC50 in data set [2] is < 100 nM. The half-maximal inhibitory concentration (IC50) in data set [3] is < 100 nM.

Compound `O=C(O)C1=Cc2c(ccc3oc4ccccc4c23)OC1C(F)(F)F` (stereo not drawn) [Example 106, 3-(Trifluoromethyl)-3H-benzofuro[3,2-f][1]benzopyran-2-carboxylic acid] registered a melting point of 253.5 to 256 °C. Moreover, the IC50 in data set [1] came to 5700 nM. In data set [2], 200 nM corresponded to half-maximal inhibition (IC50). The IC50 in data set [3] was < 100 nM.

`C=Cc1cc(Cl)cc2c1OC(C(F)(F)F)C(C(=O)O)=C2` (stereo not drawn) [Example 114, 6-Chloro-8-ethenyl-2-(trifluoramethyl)-2H-1-benzopyran-3-carboxylic acid] had a melting point of 183.2 to 185.8 °C. The half-inhibitory concentration (IC50) in data set [1] was < 100 nM. Also, the IC50 in data set [2] is < 100 nM. Besides, in data set [3], the IC50 was < 100 nM.

In turn, `O=C(O)C1=Cc2cc(Cl)cc(-c3cccs3)c2OC1C(F)(F)F` (stereo not drawn) [Example 116, 6-Chloro-8-(2-thienyl)-2-(trifluoromethyl)-2H-1-benzopyran-3-carboxylic acid] showed a melting point of 257.5 to 258.8 °C. In addition, the IC50 in data set [1] is < 100 nM. Moreover, the IC50 in data set [2] is < 100 nM. Also, the IC50 in data set [3] was < 100 nM.

In the case of `O=C(O)C1=Cc2cc(Cl)cc(C#Cc3ccccc3)c2OC1C(F)(F)F` (stereo not drawn) [Example 120, 6-Chloro-8-(phenylethynyl)-2-(trifluoromethyl)-2H-1-benzopyran-3-carboxylic acid], the melting point fell in the range of 190.1 to 192.1 °C. For the same compound, the IC50 in data set [1] is 33000 nM. For the same compound, in data set [2], the IC50 is < 100 nM. For the same compound, in data set [3], the half-maximal inhibitory concentration (IC50) is < 100 nM.

As for `O=C(O)C1=Cc2cc(Cl)cc(-c3ccc(Cl)cc3)c2OC1C(F)(F)F` (stereo not drawn) [Example 125, 6-Chloro-8-(4-chlorophenyl)-2-(trifluoromethyl)-2H-1-benzopyran-3-carboxylic acid], the melting point was 205.5 to 207.3 °C. In addition, in data set [1], the IC50 was < 100 nM. Besides, the IC50 in data set [2] is < 100 nM. For the same compound, the IC50 in data set [3] is < 100 nM.

Turning to `O=C(O)C1=Cc2cc(Cl)cc(-c3ccccc3)c2OC1C(F)(F)F` (stereo not drawn) [Example 129, 6-Chloro-8-phenyl-2-(trifluoromethyl)-2H-1-benzopyran-3-carboxylic acid], the melting point was in the range of 196.3 to 197.7 °C. In data set [1], the half-maximal inhibitory concentration (IC50) came to 300 nM. This compound also displayed an IC50 in data set [2] of 200 nM. Besides, the half-inhibitory concentration (IC50) in data set [3] was < 100 nM.

`O=C(O)C1=Cc2cc(-c3ccc(Br)cc3)ccc2OC1C(F)(F)F` (stereo not drawn) [Example 138, 6-(4-Bromophenyl)-2-(trifluoromethyl)-2H-1-benzopyran-3-carboxylic acid] showed a melting point of 215 to 216 °C. In addition, the IC50 in data set [1] came to 11100 nM. In data set [2], this compound came in with a half-inhibitory concentration (IC50) of 300 nM. The IC50 in data set [3] was < 100 nM.

Turning to `O=C(O)C1=Cc2cc(Cl)c(Cl)cc2SC1C(F)(F)F` (stereo not drawn) [Example 154, 6,7-Dichloro-2-(trifluoromethyl)-2H-1-benzothiopyran-3-carboxylic acid], the melting point was 262.5 to 263.5 °C. Besides, in data set [1], the 50% inhibitory concentration (IC50) turned out to be 37000 nM. Besides, in data set [2], the half-maximal inhibitory concentration (IC50) is 500 nM. In data set [3], the 50% inhibitory concentration (IC50) was < 100 nM.

`O=C(O)C1=Cc2cc(SC(F)(F)F)ccc2SC1C(F)(F)F` (stereo not drawn) [Example 155, 2-(Trifluoromethyl)-6-[(trifluoromethyl)thio]-2H-1-benzothiopyran-3-carboxylic acid] yielded a melting point of 129.3 to 132.4 °C. In data set [1], the half-maximal inhibitory concentration (IC50) was < 100 nM. Further, the IC50 in data set [2] is < 100 nM. Also, in data set [3], the 50% inhibitory concentration (IC50) is < 100 nM.

Compound `O=C(O)C1=Cc2ccc(Oc3ccccc3)cc2OC1C(F)(F)F` (stereo not drawn) [Example 176, 7-Phenoxy-2-(trifluoromethyl)-2H-1-benzopyran-3-carboxylic acid] had a melting point of 180 to 181 °C. In addition, the 50% inhibitory concentration (IC50) in data set [1] came to 3300 nM. Moreover, in data set [2], the IC50 was < 100 nM. Also, the half-maximal inhibitory concentration (IC50) in data set [3] is 2000 nM.

In the case of `CC(C)(CO)c1cc2c(cc1Cl)C=C(C(=O)O)C(C(F)(F)F)O2` (stereo not drawn) [Example 178, 6-Chloro-7-(2-hydroxy-1,1-dimethylethyl)-2-(trifluoromethyl)-2H-1-benzopyran-3-carboxylic acid], the melting point fell in the range of 203.8 to 205.4 °C. In addition, in data set [1], the IC50 is > 100000 nM. Further, 8400 nM corresponded to half-maximal inhibition in data set [2] (IC50). Further, the IC50 in data set [3] is 14700 nM.

As to `CC(C)(CO)c1ccc2c(c1)OC(C(F)(F)F)C(C(=O)O)=C2` (stereo not drawn) [Example 179, 7-(2-Hydroxy-1,1-dimethylethyl)-2-(trifluoromethyl)-2H-1-benzopyran-3-carboxylic acid], the melting point fell in the range of 228.9 to 230 °C. Moreover, the half-inhibitory concentration (IC50) in data set [1] was > 100000 nM. In data set [2], this compound had an IC50 of 15600 nM. In addition, the half-maximal inhibitory concentration (IC50) in data set [3] came out at 16000 nM.

`O=C(O)C1=Cc2cc(Cl)c(I)cc2OC1C(F)(F)F` (stereo not drawn) [Example 180, 6-Chloro-7-iodo-2-(trifluoromethyl)-2H-1-benzopyran-3-carboxylic acid] showed a melting point of 224.9 to 225.9 °C. Moreover, the concentration for half-maximal inhibition (IC50) in data set [1] is > 100000 nM. Further, the concentration for half-maximal inhibition (IC50) in data set [2] was < 100 nM. In data set [3], the IC50 is < 100 nM.

In the case of `C#Cc1cc2c(cc1Cl)C=C(C(=O)O)C(C(F)(F)F)O2` (stereo not drawn) [Example 181, 6-Chloro-7-ethynyl-2-(trifluoromethyl)-2H-1-benzopyran-3-carboxylic acid], the melting point is > 300 °C. The half-inhibitory concentration (IC50) in data set [1] was > 100000 nM. The compound further showed a half-inhibitory concentration (IC50) in data set [2] of 1500 nM. The IC50 in data set [3] is > 100000 nM.

Turning to `C=Cc1cc2c(cc1Cl)C=C(C(=O)O)C(C(F)(F)F)O2` (stereo not drawn) [Example 182, 6-Chloro-7-ethenyl-2-(trifluoromethyl)-2H-1-benzopyran-3-carboxylic acid], the melting point is > 200 °C (dec.). In data set [1], the IC50 is > 100000 nM. Moreover, in data set [2], the IC50 was < 100 nM. In data set [3], the IC50 was > 100000 nM.

Compound `COc1ccc(Oc2cc3c(cc2Cl)C=C(C(=O)O)C(C(F)(F)F)O3)cc1` (stereo not drawn) [Example 183, 6-Chloro-7-(4-methoxyphenoxy)-2-(trifluoromethyl)-2H-1-benzopyran-3-carboxylic acid] gave a melting point of 213.2 to 214.3 °C. Also, in data set [1], the half-maximal inhibitory concentration (IC50) was 4100 nM. The IC50 in data set [2] was < 100 nM. Further, the half-inhibitory concentration (IC50) in data set [3] was < 100 nM.

In turn, `O=C(O)C1=Cc2cc(Cl)c(Oc3ccc(Cl)cc3)cc2OC1C(F)(F)F` (stereo not drawn) [Example 184, 6-Chloro-7-(4-chlorophenoxy)-2-(trifluoromethyl)-2H-1-benzopyran-3-carboxylic acid] gave a melting point of 205.4 to 206.5 °C. Besides, the IC50 in data set [1] came to 1300 nM. The IC50 in data set [2] is < 100 nM. In data set [3], the IC50 was < 100 nM.

Consider `N#Cc1ccc(Oc2cc3c(cc2Cl)C=C(C(=O)O)C(C(F)(F)F)O3)cc1` (stereo not drawn) [Example 185, 6-Chloro-7-(4-cyanophenoxy)-2-(trifluoromethyl)-2H-1-benzopyran-3-carboxylic acid], for which the melting point lay within 212.5 to 215.7 °C. Further, the 50% inhibitory concentration (IC50) in data set [1] was > 100000 nM. In data set [2], the half-maximal inhibitory concentration (IC50) was < 100 nM. For the same compound, the IC50 in data set [3] was < 100 nM.
